# Experimental data: patent publication US20250353873A1, “COMPOUNDS AND METHODS FOR MODULATING APOE EXPRESSION” (Ionis Pharmaceuticals, Inc., priority 2024, published 2025)
# “And” between values parts separate entries of the source, which are not always exact repeats. Identical values can stand only once. Strand notation (5' to 3'): a small letter for the sugar, then the base; units joined by * are phosphorothioate-linked, units joined directly phosphodiester-linked; [ ] holds rarer units or linkages, { } end groups; capitals alone tell only the bases. [ms] = mesyl phosphoramidate linkage; k = constrained ethyl (cEt); [5mC] = 5-methylcytosine; d = 2'-deoxy (DNA)
# Tested on: human APOE RNA
# Assay: Dose-dependent inhibition of human APOE RNA in HepG2 cells, electroporation, 50,000 cells per well, RT-PCR normalized to GAPDH (Example 4, Tables 8-10)
# Format: cell-based
# Conditions: 5 nM; HepG2, electroporation, 24-hour treatment
# Summary of the method: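 Readout is percent APOE RNA versus untreated controls, measured by RT-PCR (primer probe set RTS3073) and normalized to human GAPDH. Modified oligonucleotides were delivered by electroporation at varying doses into HepG2 cells plated at 50,000 per well.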
row,Substance,APOE RNA (% UTC)
1,1746784 (k[5mC]*kT*kT*dG[ms]dG[ms]dT[ms]dG[ms]dA[ms]dA[ms]dT*d[5mC]*dT*dT*dT*dA[ms]dT*kT*kA*dA[ms]kA; antisense) [Compound 1746784],78 % UTC

# Same assay, conditions: 13 nM; HepG2, electroporation, 24-hour treatment
row,Substance,APOE RNA (% UTC)
1,1746784 (k[5mC]*kT*kT*dG[ms]dG[ms]dT[ms]dG[ms]dA[ms]dA[ms]dT*d[5mC]*dT*dT*dT*dA[ms]dT*kT*kA*dA[ms]kA; antisense) [Compound 1746784],74 % UTC

# Same assay, conditions: 82 nM; HepG2, electroporation, 24-hour treatment
row,Substance,APOE RNA (% UTC)
1,1746784 (k[5mC]*kT*kT*dG[ms]dG[ms]dT[ms]dG[ms]dA[ms]dA[ms]dT*d[5mC]*dT*dT*dT*dA[ms]dT*kT*kA*dA[ms]kA; antisense) [Compound 1746784],80 % UTC

# Same assay, conditions: 205 nM; HepG2, electroporation, 24-hour treatment
row,Substance,APOE RNA (% UTC)
1,1746784 (k[5mC]*kT*kT*dG[ms]dG[ms]dT[ms]dG[ms]dA[ms]dA[ms]dT*d[5mC]*dT*dT*dT*dA[ms]dT*kT*kA*dA[ms]kA; antisense) [Compound 1746784],61 % UTC

# Same assay, conditions: 512 nM; HepG2, electroporation, 24-hour treatment
row,Substance,APOE RNA (% UTC)
1,1746784 (k[5mC]*kT*kT*dG[ms]dG[ms]dT[ms]dG[ms]dA[ms]dA[ms]dT*d[5mC]*dT*dT*dT*dA[ms]dT*kT*kA*dA[ms]kA; antisense) [Compound 1746784],48 % UTC

# Same assay, conditions: 1,280 nM; HepG2, electroporation, 24-hour treatment
row,Substance,APOE RNA (% UTC)
1,1746784 (k[5mC]*kT*kT*dG[ms]dG[ms]dT[ms]dG[ms]dA[ms]dA[ms]dT*d[5mC]*dT*dT*dT*dA[ms]dT*kT*kA*dA[ms]kA; antisense) [Compound 1746784],29 % UTC

# Same assay, conditions: 3,200 nM; HepG2, electroporation, 24-hour treatment
row,Substance,APOE RNA (% UTC)
1,1746784 (k[5mC]*kT*kT*dG[ms]dG[ms]dT[ms]dG[ms]dA[ms]dA[ms]dT*d[5mC]*dT*dT*dT*dA[ms]dT*kT*kA*dA[ms]kA; antisense) [Compound 1746784],10 % UTC

# Same assay, conditions: 8,000 nM; HepG2, electroporation, 24-hour treatment
row,Substance,APOE RNA (% UTC)
1,1746784 (k[5mC]*kT*kT*dG[ms]dG[ms]dT[ms]dG[ms]dA[ms]dA[ms]dT*d[5mC]*dT*dT*dT*dA[ms]dT*kT*kA*dA[ms]kA; antisense) [Compound 1746784],7 % UTC

# Same assay, conditions: 20,000 nM; HepG2, electroporation, 24-hour treatment
row,Substance,APOE RNA (% UTC)
1,1746784 (k[5mC]*kT*kT*dG[ms]dG[ms]dT[ms]dG[ms]dA[ms]dA[ms]dT*d[5mC]*dT*dT*dT*dA[ms]dT*kT*kA*dA[ms]kA; antisense) [Compound 1746784],7 % UTC

# Same assay, conditions: HepG2, electroporation, 24-hour treatment
row,Substance,IC50
1,1746784 (k[5mC]*kT*kT*dG[ms]dG[ms]dT[ms]dG[ms]dA[ms]dA[ms]dT*d[5mC]*dT*dT*dT*dA[ms]dT*kT*kA*dA[ms]kA; antisense) [Compound 1746784],310 nM

# Tested on: human APOE RNA
# Assay: Dose-dependent inhibition of human APOE RNA in differentiated SH-SY5Y cells, free uptake, 5 days (Example 5)
# Format: cell-based
# Conditions: 5 nM, 5 days (Table 14)
# Method: Modified oligonucleotides selected from the examples above were tested at various doses in differentiated SH-SY5Y cells. The modified oligonucleotides were tested in a series of experiments that had the same culture conditions.
# Differentiated SH-SY5Y cells plated at a density of 10,000 cells per well were treated by free uptake with various concentrations of modified oligonucleotide as specified in the tables below. […] APOE RNA levels were measured using the human primer probe set RTS3073 (described herein above). APOE RNA levels were normalized to human PPIA. Human PPIA was amplified using human primer probe set mk_cycloA_2nd (described herein above). Results are presented as percent APOE RNA, relative to the amount of APOE RNA in untreated control cells (% UTC). The half maximal inhibitory concentration (IC50) of each modified oligonucleotide was calculated in GraphPad Prism 10 (GraphPad Software, San Diego, CA) and is also presented in the tables below.
row,Substance,APOE RNA (% UTC)
1,1746784 (k[5mC]*kT*kT*dG[ms]dG[ms]dT[ms]dG[ms]dA[ms]dA[ms]dT*d[5mC]*dT*dT*dT*dA[ms]dT*kT*kA*dA[ms]kA; antisense) [Compound 1746784],82 % UTC

# Same assay, conditions: 13 nM, 5 days (Table 14)
row,Substance,APOE RNA (% UTC)
1,1746784 (k[5mC]*kT*kT*dG[ms]dG[ms]dT[ms]dG[ms]dA[ms]dA[ms]dT*d[5mC]*dT*dT*dT*dA[ms]dT*kT*kA*dA[ms]kA; antisense) [Compound 1746784],118 % UTC

# Same assay, conditions: 33 nM, 5 days (Table 14)
row,Substance,APOE RNA (% UTC)
1,1746784 (k[5mC]*kT*kT*dG[ms]dG[ms]dT[ms]dG[ms]dA[ms]dA[ms]dT*d[5mC]*dT*dT*dT*dA[ms]dT*kT*kA*dA[ms]kA; antisense) [Compound 1746784],83 % UTC

# Same assay, conditions: 82 nM, 5 days (Table 14)
row,Substance,APOE RNA (% UTC)
1,1746784 (k[5mC]*kT*kT*dG[ms]dG[ms]dT[ms]dG[ms]dA[ms]dA[ms]dT*d[5mC]*dT*dT*dT*dA[ms]dT*kT*kA*dA[ms]kA; antisense) [Compound 1746784],61 % UTC

# Same assay, conditions: 205 nM, 5 days (Table 14)
row,Substance,APOE RNA (% UTC)
1,1746784 (k[5mC]*kT*kT*dG[ms]dG[ms]dT[ms]dG[ms]dA[ms]dA[ms]dT*d[5mC]*dT*dT*dT*dA[ms]dT*kT*kA*dA[ms]kA; antisense) [Compound 1746784],49 % UTC

# Same assay, conditions: 512 nM, 5 days (Table 14)
row,Substance,APOE RNA (% UTC)
1,1746784 (k[5mC]*kT*kT*dG[ms]dG[ms]dT[ms]dG[ms]dA[ms]dA[ms]dT*d[5mC]*dT*dT*dT*dA[ms]dT*kT*kA*dA[ms]kA; antisense) [Compound 1746784],62 % UTC

# Same assay, conditions: 1,280 nM, 5 days (Table 14)
row,Substance,APOE RNA (% UTC)
1,1746784 (k[5mC]*kT*kT*dG[ms]dG[ms]dT[ms]dG[ms]dA[ms]dA[ms]dT*d[5mC]*dT*dT*dT*dA[ms]dT*kT*kA*dA[ms]kA; antisense) [Compound 1746784],36 % UTC

# Same assay, conditions: 3,200 nM, 5 days (Table 14)
row,Substance,APOE RNA (% UTC)
1,1746784 (k[5mC]*kT*kT*dG[ms]dG[ms]dT[ms]dG[ms]dA[ms]dA[ms]dT*d[5mC]*dT*dT*dT*dA[ms]dT*kT*kA*dA[ms]kA; antisense) [Compound 1746784],24 % UTC

# Same assay, conditions: 8,000 nM, 5 days (Table 14)
row,Substance,APOE RNA (% UTC)
1,1746784 (k[5mC]*kT*kT*dG[ms]dG[ms]dT[ms]dG[ms]dA[ms]dA[ms]dT*d[5mC]*dT*dT*dT*dA[ms]dT*kT*kA*dA[ms]kA; antisense) [Compound 1746784],13 % UTC

# Same assay, conditions: 20,000 nM, 5 days (Table 14)
row,Substance,APOE RNA (% UTC)
1,1746784 (k[5mC]*kT*kT*dG[ms]dG[ms]dT[ms]dG[ms]dA[ms]dA[ms]dT*d[5mC]*dT*dT*dT*dA[ms]dT*kT*kA*dA[ms]kA; antisense) [Compound 1746784],6 % UTC

# Same assay, conditions: 5 days (Table 14)
row,Substance,IC50
1,1746784 (k[5mC]*kT*kT*dG[ms]dG[ms]dT[ms]dG[ms]dA[ms]dA[ms]dT*d[5mC]*dT*dT*dT*dA[ms]dT*kT*kA*dA[ms]kA; antisense) [Compound 1746784],440 nM

# Tested on: human APOE RNA
# Assay: Activity in APOE C57BL/6NTac-Apoeem7250 knock-in mice, single ICV bolus, 4 weeks (Example 10)
# Format: in vivo
# Conditions: cortex; single ICV bolus 300 μg; 4 weeks post treatment; normalized to mouse Ppia
# Summary of the method: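 Human APOE RNA, quantified by real-time RT-PCR with RTS3073 and normalized to mouse Ppia, was read in cortical brain and spinal cord 4 weeks post dosing. Dosing was a single ICV bolus of 300 μg per knock-in mouse; values are % of PBS-treated animals.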
row,Substance,APOE RNA (% control) Cortex
1,1746784 (k[5mC]*kT*kT*dG[ms]dG[ms]dT[ms]dG[ms]dA[ms]dA[ms]dT*d[5mC]*dT*dT*dT*dA[ms]dT*kT*kA*dA[ms]kA; antisense) [Compound 1746784],49 % control and 39 % control

# Same assay, conditions: spinal cord; single ICV bolus 300 μg; 4 weeks post treatment; normalized to mouse Ppia
row,Substance,APOE RNA (% control) Spinal Cord
1,1746784 (k[5mC]*kT*kT*dG[ms]dG[ms]dT[ms]dG[ms]dA[ms]dA[ms]dT*d[5mC]*dT*dT*dT*dA[ms]dT*kT*kA*dA[ms]kA; antisense) [Compound 1746784],26 % control

# Tested on: human APOE RNA
# Assay: Activity in APOE C57BL/6NTac-Apoeem7250 knock-in mice, single ICV bolus, 8 weeks (Example 11)
# Format: in vivo
# Conditions: cortex; single ICV bolus 300 μg; 8 weeks post treatment; normalized to mouse Ppia
# Summary of the method: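 Cortical and spinal cord human APOE RNA quantified by RT-qPCR 8 weeks after a single 300 μg ICV dose in knock-in mice, Ppia-normalized. Values are percent of levels in PBS-treated animals.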
row,Substance,APOE RNA (% control) Cortex
1,1746784 (k[5mC]*kT*kT*dG[ms]dG[ms]dT[ms]dG[ms]dA[ms]dA[ms]dT*d[5mC]*dT*dT*dT*dA[ms]dT*kT*kA*dA[ms]kA; antisense) [Compound 1746784],38 % control

# Same assay, conditions: spinal cord; single ICV bolus 300 μg; 8 weeks post treatment; normalized to mouse Ppia
row,Substance,APOE RNA (% control) Spinal Cord
1,1746784 (k[5mC]*kT*kT*dG[ms]dG[ms]dT[ms]dG[ms]dA[ms]dA[ms]dT*d[5mC]*dT*dT*dT*dA[ms]dT*kT*kA*dA[ms]kA; antisense) [Compound 1746784],138 % control

# Tested on: human APOE RNA
# Assay: Duration of action study in APOE C57BL/6NTac-Apoeem7250 knock-in mice (Example 16)
# Format: in vivo
# Conditions: cortex; 300 μg ICV; 112 days post-dose
# Method: Modified oligonucleotides described above were tested in the APOE C57BL/6NTac-Apoeem7250 knock-in mouse model described above.
# APOE C57BL/6NTac-Apoeem7250 knock-in mice were divided into groups of 2-4 mice each. Each mouse received a single intracerebroventricular (ICV) bolus of 300 μg of modified oligonucleotide. A group of 2-4 mice received a single ICV bolus with PBS as a negative control.
# Mice were sacrificed at various timepoints as indicated in the table below and RNA was extracted from cortical brain tissue and spinal cord for quantitative real-time RT-PCR analysis of RNA expression of APOE using primer probe set RTS3073 (described herein above). APOE RNA levels were normalized to mouse Ppia. Mouse Ppia was amplified using primer probe set m_cyclo24 (described herein above). Results are presented as percent human APOE RNA relative to the amount of human APOE RNA in PBS treated animals, (% control). Each experiment is identified in separate tables below.
row,Substance,APOE RNA (% control) Cortex
1,1746784 (k[5mC]*kT*kT*dG[ms]dG[ms]dT[ms]dG[ms]dA[ms]dA[ms]dT*d[5mC]*dT*dT*dT*dA[ms]dT*kT*kA*dA[ms]kA; antisense) [Compound 1746784],38 % control

# Same assay, conditions: cortex; 300 μg ICV; 140 days post-dose
row,Substance,APOE RNA (% control) Cortex
1,1746784 (k[5mC]*kT*kT*dG[ms]dG[ms]dT[ms]dG[ms]dA[ms]dA[ms]dT*d[5mC]*dT*dT*dT*dA[ms]dT*kT*kA*dA[ms]kA; antisense) [Compound 1746784],45 % control

# Same assay, conditions: spinal cord; 300 μg ICV; 112 days post-dose
row,Substance,APOE RNA (% control) Spinal Cord
1,1746784 (k[5mC]*kT*kT*dG[ms]dG[ms]dT[ms]dG[ms]dA[ms]dA[ms]dT*d[5mC]*dT*dT*dT*dA[ms]dT*kT*kA*dA[ms]kA; antisense) [Compound 1746784],24 % control

# Same assay, conditions: spinal cord; 300 μg ICV; 140 days post-dose
row,Substance,APOE RNA (% control) Spinal Cord
1,1746784 (k[5mC]*kT*kT*dG[ms]dG[ms]dT[ms]dG[ms]dA[ms]dA[ms]dT*d[5mC]*dT*dT*dT*dA[ms]dT*kT*kA*dA[ms]kA; antisense) [Compound 1746784],56 % control
